Measurements published in patent publication US10221152B2 (priority 2013, dated 2019).
Where a name gives a salt, the structure may show the parent alone.

Tests used:
[1] = test system: Tamiflu-resistant H1N1 viral strain rWSN^H274Y; assay type: cell-based, Influenza A virus
[2] = test system: H1N1 T.R. (Tamiflu-resistant variant of H1N1 viral strain); assay type: cell-based, Influenza A virus

| Compound | concentration required to inhibit rWSN^H274Y (immunofluorescence staining) [1] [µM] | Minimal Inhibitory Concentration (MIC), H1N1 T.R. [2] [µg/mL] |
| --- | --- | --- |
| COc1c(C)c2c(c(O)c1C/C=C(\C)CCC(=O)OCCN1CCOCC1)C(=O)OC2 [MPM-N, mycophenolate mofetil hydrochloride] | 5 | – |
| NC(=O)c1ncn([C@@H]2O[C@H](CO)[C@@H](O)[C@H]2O)n1 [Ribavirin, reference compound] | 100 | – |
| COc1c(C)c2c(c(O)c1C/C=C(\C)CCC(=O)OCCN1CCOCC1)C(=O)OC2 [MPM, 2-morpholinoethyl(E)-6-(1,3-dihydro-4-hydroxy-6-methoxy-7-methyl-3-oxo-5-isobenzofuranyl)-4-methyl-4-hexenoate] | – | 0.39 |
